Measurements taken from patent US20210379184A1, “Deep Eutectic Solvent Platform for Oral Pharmaceutical Formulations” (SeraNovo B.V., priority 2018, published 2021).
Converted amounts (≈) assume the structure as drawn.

Assay: physchem
Source text: The DES systems contained propylene glycol, a specific polymer solubilizer, and one or more (NA)DES constituents.

SMILES | solubility (20 °C, pH 7, water) [µg/mL] | solubility (organic solvent or mixture, Concentration solubilized API (mg/mL)) [µg/mL] | Concentration solubilized API (mg/mL) | factor by which the concentration solubilized in DES exceeds the solubility of the drug in water | solubility (organic solvent or mixture, solubility of itraconazole) [µg/mL]
NC(=O)N1c2ccccc2C=Cc2ccccc21 [Carbamazepine] | 17 (≈ 72 µM) | > 100000 | – | – | –
COc1ccccc1OCCNCC(O)COc1cccc2[nH]c3ccccc3c12 (centres unmarked) [Carvedilol] | 0.6 (≈ 1.48 µM) | – | – | – | –
O=C(O)c1ccccc1Nc1cccc(C(F)(F)F)c1 [Flufenamic Acid] | 9.1 (≈ 32.4 µM) | – | – | – | –
CC(C)Cc1ccc(C(C)C(=O)O)cc1 (centres unmarked) [Ibuprofen] | 21 (≈ 102 µM) | – | – | at least 100 | –

Other lines, results leading:

solubility (20 °C, pH 7, water) [µg/mL] | solubility (organic solvent or mixture, Concentration solubilized API (mg/mL)) [µg/mL] | Concentration solubilized API (mg/mL) | factor by which the concentration solubilized in DES exceeds the solubility of the drug in water | solubility (organic solvent or mixture, solubility of itraconazole) [µg/mL] | SMILES
0.004 (≈ 0.00567 µM) | – | up to 200 mg/mL | ≤ 10.000.000 | < 25000 | CCC(C)n1ncn(-c2ccc(N3CCN(c4ccc(OCC5COC(Cn6cncn6)(c6ccc(Cl)cc6Cl)O5)cc4)CC3)cc2)c1=O (centres unmarked) [Itraconazole]
0.09 (≈ 0.169 µM) | – | – | – | – | CC(=O)N1CCN(c2ccc(OCC3COC(Cn4ccnc4)(c4ccc(Cl)cc4Cl)O3)cc2)CC1 (centres unmarked) [Ketoconazole]
